From the NIST ThermoML archive (doi:10.1021/je060271a)

Details: 343.15 K, Liquid, Vibrating tube method

CCCCCCCC(=O)OCC(COC(=O)CCCCCCC)(COC(=O)CCCCCCC)COC(=O)CCCCCCC [pentaerythritol tetraoctanoate]
Details	mass density [kg/m3]
22002 kPa	941.5
22028 kPa	941.4
22054 kPa	941.3
22085 kPa	941.4
22111 kPa	941.4
22142 kPa	941.5
22168 kPa	941.4
22195 kPa	941.6
22221 kPa	941.4
22248 kPa	941.5
22280 kPa	941.6
22307 kPa	941.6
22338 kPa	941.5
22365 kPa	941.8
22392 kPa	941.7
22424 kPa	941.7
22451 kPa	941.7
22478 kPa	941.5
22510 kPa	941.7
22537 kPa	941.7
22564 kPa	941.8
22599 kPa	941.9
22626 kPa	941.8
22654 kPa	941.9
22682 kPa	941.9
22709 kPa	941.7
22742 kPa	941.8
22770 kPa	941.8
22798 kPa	941.8
22831 kPa	942
22858 kPa	941.8
22892 kPa	941.9
22920 kPa	941.9
22949 kPa	942
23008 kPa	942
23042 kPa	941.9
23070 kPa	942.1
23098 kPa	942.1
23132 kPa	942.1
23161 kPa	942.1
23190 kPa	942.1
23224 kPa	942.1
23253 kPa	942.1
23281 kPa	942.2
23316 kPa	942.2
23344 kPa	942.1
23374 kPa	942.3
23409 kPa	942.2
23438 kPa	942.4
23468 kPa	942.1
23497 kPa	942.3
23532 kPa	942.2
23562 kPa	942.4
23597 kPa	942.4
23627 kPa	942.3
23656 kPa	942.5
23686 kPa	942.4
23722 kPa	942.5
23753 kPa	942.5
23777 kPa	942.5
23819 kPa	942.5
23849 kPa	942.6
23886 kPa	942.6
23916 kPa	942.5
23946 kPa	942.5
23984 kPa	942.5
24014 kPa	942.6
24045 kPa	942.8
24076 kPa	942.6
24113 kPa	942.7
24144 kPa	942.6
24182 kPa	942.7
24245 kPa	942.8
24283 kPa	942.8
24314 kPa	942.8
24345 kPa	942.8
24377 kPa	942.9
24415 kPa	942.8
24447 kPa	942.9
24480 kPa	942.9
24518 kPa	943
24550 kPa	942.9
24589 kPa	943
24622 kPa	943.1
24655 kPa	943.1
24688 kPa	943.1
24721 kPa	943
24761 kPa	943.1
24794 kPa	943.1
24828 kPa	943.1
24867 kPa	943.1
24894 kPa	943.3
24934 kPa	943.3
24961 kPa	943.1
24994 kPa	943.2
25028 kPa	943.2
25069 kPa	943.3
25097 kPa	943.2
25138 kPa	943.4
25185 kPa	943.5
25226 kPa	943.3
25260 kPa	943.3
25294 kPa	943.5
25335 kPa	943.5
25370 kPa	943.5
25404 kPa	943.5
25445 kPa	943.6
25480 kPa	943.5
25523 kPa	943.6
25553 kPa	943.7
25596 kPa	943.5
25632 kPa	943.8
25667 kPa	943.6
25703 kPa	943.7
25746 kPa	943.8
25781 kPa	943.7
25824 kPa	943.7
25860 kPa	943.7
25896 kPa	943.8
25933 kPa	944
25977 kPa	943.9
26014 kPa	943.9
26054 kPa	943.9
26091 kPa	943.9
26135 kPa	943.9
26172 kPa	944
26210 kPa	944.2
26247 kPa	944.1
26292 kPa	944.1
26329 kPa	944.1
26367 kPa	944.2
26412 kPa	944.1
26449 kPa	944.1
26495 kPa	944.1
26534 kPa	944.1
26573 kPa	944
26612 kPa	944.2
26696 kPa	944.4
26735 kPa	944.4
26781 kPa	944.3
26820 kPa	944.4
26859 kPa	944.4
26906 kPa	944.4
26945 kPa	944.4
26985 kPa	944.4
27032 kPa	944.6
27072 kPa	944.4
27113 kPa	944.7
27160 kPa	944.5
27200 kPa	944.7
27241 kPa	944.7
27290 kPa	944.7
27331 kPa	944.6
27371 kPa	944.7
27412 kPa	944.8
27462 kPa	944.7
27503 kPa	944.8
27544 kPa	944.8
27594 kPa	944.9
27637 kPa	944.8
27680 kPa	944.9
27721 kPa	944.9
27772 kPa	945
27815 kPa	945.1
27857 kPa	945
27909 kPa	945
27951 kPa	945
28003 kPa	945
28046 kPa	945.1
28089 kPa	945.1
28141 kPa	945.3
28185 kPa	945.2
28231 kPa	945.3
28277 kPa	945.4
28332 kPa	945.4
28378 kPa	945.4
28426 kPa	945.4
28478 kPa	945.5
28513 kPa	945.4
28545 kPa	945.5
28583 kPa	945.4
28615 kPa	945.4
28647 kPa	945.5
28680 kPa	945.5
28720 kPa	945.7
28753 kPa	945.6
28786 kPa	945.6
28818 kPa	945.8
28858 kPa	945.7
28890 kPa	945.7
28923 kPa	945.7
28963 kPa	945.7
28996 kPa	945.8
29036 kPa	945.8
29070 kPa	945.9
29104 kPa	945.8
29138 kPa	945.9
29179 kPa	945.9
29207 kPa	945.8
29247 kPa	946
29281 kPa	945.9
29321 kPa	945.9
29355 kPa	946
29389 kPa	946
29424 kPa	946
29465 kPa	946
29500 kPa	946
29534 kPa	946.1
29570 kPa	946.1
29612 kPa	946.1
29648 kPa	946.2
29685 kPa	946.2
29720 kPa	946.2
29754 kPa	946.3
29797 kPa	946.2
29832 kPa	946.2
29874 kPa	946.2
29910 kPa	946.3
29945 kPa	946.3
29987 kPa	946.4
30024 kPa	946.4
30060 kPa	946.5
30096 kPa	946.4
30139 kPa	946.4
30175 kPa	946.5
30212 kPa	946.4
30255 kPa	946.6
30291 kPa	946.5
30327 kPa	946.7
30371 kPa	946.5
30525 kPa	946.7
30562 kPa	946.8
30607 kPa	946.7
30646 kPa	946.7
30682 kPa	946.8
30727 kPa	946.8
30764 kPa	946.9
30802 kPa	946.8
30847 kPa	946.8
30885 kPa	946.9
30923 kPa	947
31006 kPa	946.9
31045 kPa	947
31091 kPa	947
31130 kPa	947
31169 kPa	947.2
31208 kPa	947.1
31255 kPa	947.1
31294 kPa	947.2
31341 kPa	947.1
31380 kPa	947.2
31411 kPa	947.1
31459 kPa	947.2
31506 kPa	947.2
31538 kPa	947.4
31586 kPa	947.3
31633 kPa	947.5
31674 kPa	947.4
31717 kPa	947.3
31758 kPa	947.5
31807 kPa	947.4
31848 kPa	947.5
31898 kPa	947.5
31942 kPa	947.5
31985 kPa	947.6
32036 kPa	947.6
32074 kPa	947.7
32104 kPa	947.6
32141 kPa	947.6
32172 kPa	947.8
32204 kPa	947.8
32242 kPa	947.7
32273 kPa	947.7
32305 kPa	947.9
32342 kPa	947.7
32374 kPa	947.9
32405 kPa	947.8
32443 kPa	947.8
32475 kPa	947.8
32507 kPa	947.8
32545 kPa	947.9
32577 kPa	947.9
32610 kPa	948
32644 kPa	948
32671 kPa	948
32710 kPa	948
32736 kPa	948.1
32762 kPa	948.1
32840 kPa	948
32885 kPa	948.1
32925 kPa	948
32958 kPa	948.2
32991 kPa	948.3
33030 kPa	948.3
33064 kPa	948.3
33099 kPa	948.3
